Experimental data published in PMC5856393, “Synthetic pathways and processes for effective production of 5-hydroxytryptophan and serotonin from glucose in Escherichia coli” (Journal of Biological Engineering, 2018).

What was measured:
[1] = target: T1, TDC (tryptophan decarboxylase) (Catharanthus roseus, UniProt P17770); assay: whole-cell bioconversion, HPLC of serotonin; format: cell-based; conditions: E. coli BL21(DE3) delta-tnaA expressing TDC; pH 6.7, 30 °C
T1 construct: expressed in E. coli BL21(DE3) delta-tnaA from pCOLAJ23-TDC; gene from pCOLADuet-GSTdelta37T5H + TDC
T1 sequence (P17770 whole entry): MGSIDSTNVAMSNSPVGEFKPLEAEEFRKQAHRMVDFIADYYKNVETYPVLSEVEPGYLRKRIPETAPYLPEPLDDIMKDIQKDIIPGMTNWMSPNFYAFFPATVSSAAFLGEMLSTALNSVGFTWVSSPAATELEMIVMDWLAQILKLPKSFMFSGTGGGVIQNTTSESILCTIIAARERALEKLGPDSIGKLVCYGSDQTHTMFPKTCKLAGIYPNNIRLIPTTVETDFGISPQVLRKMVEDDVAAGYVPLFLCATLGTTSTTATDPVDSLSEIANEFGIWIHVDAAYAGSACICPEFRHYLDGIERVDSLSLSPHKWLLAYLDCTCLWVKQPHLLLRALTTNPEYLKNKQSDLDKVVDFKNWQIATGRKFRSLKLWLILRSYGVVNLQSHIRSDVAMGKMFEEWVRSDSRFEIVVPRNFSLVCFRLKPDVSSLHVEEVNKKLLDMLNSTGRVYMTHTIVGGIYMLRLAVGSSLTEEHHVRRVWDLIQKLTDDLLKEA

[2] = target: T2, CtAAAH-F (aromatic amino acid hydroxylase W192F) (Cupriavidus taiwanensis, UniProt B3R7Q6, W192F); assay: tryptophan hydroxylation assay, Lineweaver-Burk plot; format: biochemical; conditions: parent CtAAAH-F (W192F); assay conditions only by citation
T2 construct: gene phhA; engineered W192F parent, expressed in E. coli from pACYCDuet-1 derivatives; tag and purification not described here
T2 sequence (B3R7Q6 entry or part of it W192F): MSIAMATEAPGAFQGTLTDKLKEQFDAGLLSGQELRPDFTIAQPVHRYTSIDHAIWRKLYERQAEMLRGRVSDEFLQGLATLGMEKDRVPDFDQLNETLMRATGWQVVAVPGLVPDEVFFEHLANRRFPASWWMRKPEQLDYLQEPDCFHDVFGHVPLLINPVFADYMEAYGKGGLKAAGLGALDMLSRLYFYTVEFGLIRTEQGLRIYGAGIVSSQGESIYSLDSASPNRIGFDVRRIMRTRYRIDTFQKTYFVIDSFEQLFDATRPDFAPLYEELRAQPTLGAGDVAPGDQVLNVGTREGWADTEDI
Description: (§1) tryptophan hydroxylation assay, Lineweaver-Burk plot on CtAAAH-F (aromatic amino acid hydroxylase W192F)

[3] = target: T3, CtAAAH-F (aromatic amino acid hydroxylase W192F) (Cupriavidus taiwanensis, UniProt B3R7Q6, W192F/E219C); assay: as above; format: biochemical; conditions: made in the CtAAAH-F (W192F) background; assay conditions only by citation
T3 construct: gene phhA; engineered W192F parent, expressed in E. coli from pACYCDuet-1 derivatives; tag and purification not described here
T3 sequence (B3R7Q6 entry or part of it W192F/E219C): as the sequence (B3R7Q6 entry or part of it W192F) above, with E219C counted along it
Description: as §1

[4] = target: T4, CtAAAH-F (aromatic amino acid hydroxylase W192F) (Cupriavidus taiwanensis, UniProt B3R7Q6, W192F/F197L); assay: as above; format: biochemical; conditions: made in the CtAAAH-F (W192F) background; assay conditions only by citation
T4 construct: gene phhA; engineered W192F parent, expressed in E. coli from pACYCDuet-1 derivatives; tag and purification not described here
T4 sequence (B3R7Q6 entry or part of it W192F/F197L): as the sequence (B3R7Q6 entry or part of it W192F) above, with F197L counted along it
Description: as §1

[5] = target: T5, CtAAAH-F (aromatic amino acid hydroxylase W192F) (Cupriavidus taiwanensis, UniProt B3R7Q6, W192F/F197L/E219C); assay: as above; format: biochemical; conditions: made in the CtAAAH-F (W192F) background; assay conditions only by citation
T5 construct: gene phhA; engineered W192F parent, expressed in E. coli from pACYCDuet-1 derivatives; tag and purification not described here
T5 sequence (B3R7Q6 entry or part of it W192F/F197L/E219C): as the sequence (B3R7Q6 entry or part of it W192F) above, with F197L, E219C counted along it
Description: as §1

[6] = target: T6, CtAAAH-F (aromatic amino acid hydroxylase W192F) (Cupriavidus taiwanensis, UniProt B3R7Q6, W192F/F197I); assay: as above; format: biochemical; conditions: made in the CtAAAH-F (W192F) background; assay conditions only by citation
T6 construct: gene phhA; engineered W192F parent, expressed in E. coli from pACYCDuet-1 derivatives; tag and purification not described here
T6 sequence (B3R7Q6 entry or part of it W192F/F197I): as the sequence (B3R7Q6 entry or part of it W192F) above, with F197I counted along it
Description: as §1

Km [2]	Km [3]	Km [4]	Km [5]	Km [6]	SMILES	whole-cell bioconversion, HPLC of serotonin [1]
					N[C@@H](Cc1c[nH]c2ccc(O)cc12)C(=O)O [5HTP]	The consumption of 5HTP and serotonin production had a strong correlation
3000 µM	1800 µM	1600 µM	950 µM	2100 µM	N[C@@H](Cc1c[nH]c2ccccc12)C(=O)O [tryptophan]	
